Results on two molecules are retold here after patent publication US20140221414A1 (priority 2009, published 2014).

Molecules are shown by their SMILES. In brackets after ≈: the same amount, converted by molar mass. Where two headings read alike, the source gives them in different places.

The conditions of series [1]: oral 400 mg, healthy volunteers, cited from earlier work.
A further series can be described thus: physchem. The class given is physicochemical. As to conditions: thermodynamic from solid. The text has this:
Another embodiment relates to various methods for screening and analyzing methods and preparations that are intended to enhance the dissolution of poorly soluble drugs. These analysis methods include dissolution studies, saturation solubility studies, wettability studies, permeation studies, X-ray diffraction studies etc.

Series [2] has as its system MDCK (Mardin Darby Canine Kidney Cells) cells. Kind of series: Permeability study using MDCK cells in transwell plates. As to conditions: 10 μmolar apical, 37° C., 2 hours. The format is in vitro ADME. How it is done:
Three well are to be used per sample. Plates are placed in shaking water bath at 37° C. for 2 hours. Take out 20 μl from apical and 100 μl from basolateral side for sample processing at […]. Lucifer Yellow is used as a marker to see the monolayer integrity of the cells. Propronalol is used as a permeability marker.
Relative area in apical remain 100% even after 2 hours.

A further series has as its system E. Coli. Kind of series: Anti-microbial activity by cup plate / well plate method (zone of inhibition). The format is cell-based. As to conditions: 200 μl per well, 37° C., 24 hrs. How it is done: The measurement of zone diameters estimates the susceptibility of bacteria to antimicrobial compounds.
Prepare a nutrient agar medium in distilled water and sterilize this media in autoclave at 121° C. for 15 min. Transfer this media aseptically in sterile petriplate, allow the media to solidify for few minutes. After solidification, add test micro-organism i.e. E. Coli (100 μl) in each plate and spread this culture with the help of spreader. Prepare the well in plate with the help of borer.

The subject of another series is Campylobacter jejuni. As to conditions: cited from earlier work.
Series [3] deals with Escherichia coli Enteroaggregative. As to conditions: 75 strains; cited from earlier work.
In series [4] the test system is Escherichia coli Enterotoxigenic. As to conditions: 97 strains; cited from earlier work.
For a further series, the system named is Helicobacter pylori. As to conditions: 40 strains; MIC50 instead of MIC90; cited from earlier work.
In another series the test system is Salmonella species. As to conditions: 46 strains; cited from earlier work.
A further series concerns Shigella species. As to conditions: 36 strains; cited from earlier work.
The subject of the next series is Vibrio cholerae. As to conditions: 403 strains; cited from earlier work.
Another series deals with Yersinia enterocolitica. As to conditions: 74 strains; cited from earlier work.
A further series relates to Other. As to conditions: 21 strains; cited from earlier work.

In the case of `CO[C@H]1/C=C/O[C@@]2(C)Oc3c(C)c(O)c4c(O)c(c5c(nc6cc(C)ccn65)c4c3C2=O)NC(=O)/C(C)=C\C=C\[C@H](C)[C@H](O)[C@@H](C)[C@@H](O)[C@@H](C)[C@H](OC(C)=O)[C@@H]1C` [14C-rifaximin], the “dose recovered in feces” value in series [1] (almost entirely as unchanged drug) is recorded as “approximately 97%”. Moreover, the “dose recovered in the urine” value in series [1] is listed as 0.32%.

For the molecule `CO[C@H]1/C=C/O[C@@]2(C)Oc3c(C)c(O)c4c(O)c(c5c(nc6cc(C)ccn65)c4c3C2=O)NC(=O)/C(C)=C\C=C\[C@H](C)[C@H](O)[C@@H](C)[C@@H](O)[C@@H](C)[C@H](OC(C)=O)[C@@H]1C` [rifaximin], the solubility in “physchem” (pH 6.8, aqueous buffer) is 10 µg/mL (≈ 12.7 µM); in the series “physchem” (water) it was under 10 µg/mL. Also, the “amount found in the basolateral side of the transwell (apparent permeability)” value in series [2] was “No detectable amount”. For the same molecule, the “area of zone of inhibition” value in the series with E. Coli is “very negligible”. Besides, the MIC90 in the series with Campylobacter jejuni (9 strains) was 32 µg/mL (≈ 40.7 µM); in the series with Campylobacter jejuni (54 strains) it was 128 µg/mL (≈ 163 µM); in series [3], 32 µg/mL (≈ 40.7 µM); in series [4], 32 µg/mL (≈ 40.7 µM); in the series on Salmonella species, 64 µg/mL (≈ 81.4 µM); in the series with Shigella species it was 64 µg/mL (≈ 81.4 µM). Also, the MIC90 with Vibrio cholerae was 4 µg/mL (≈ 5.09 µM); in the series with Yersinia enterocolitica it was 16 µg/mL (≈ 20.4 µM); in the series with Other, 4 µg/mL (≈ 5.09 µM). Further, the MIC50 in the series on Helicobacter pylori was 4 (MIC50) μg/ml.

The term solubility denotes how much of the substance goes into solution per volume.
